Reference: patent US7196110B2, “N-substituted tricyclic 3-aminopyrazoles as inhibitors for the treatment of cell proliferative disorders” (Janssen Phamaceutica N.V., priority 2002, dated 2007)
“And” between values parts separate entries of the source, which are not always exact repeats. Identical values can stand only once. Like-named read-outs stand apart in the source and are kept apart here.

How the values were obtained:
[1] = target: T1, PDGF-receptor beta enzyme comprising the tyrosine kinase domain (Homo sapiens, UniProt P09619); assay: Inhibition of PDGF-receptor kinase activity (cell-free, PLC1 peptide, 33P Flashplate); format: biochemical; details: for inhibition at 10 µM: compound at 10 uM, read-out: Percent Inhibition @ 10 uM
T1 construct: from amino acid 545 to 1106 of GenBank Access NO: AAA36427
Summary of the method: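 The IC50 is the inhibitor level halving kinase activity relative to inhibitor-free wells, measured as 33P captured on a streptavidin-bound biotin-PLC1 peptide. The reaction ran 60 min at 30 °C in pH 8 Tris buffer with 1 mM DTT, 5 μM ATP and the 545–1106 kinase-domain enzyme.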

c-Abl kinase = c-Abl kinase (Abelson murine leukemia virus, UniProt P00521); assay: Inhibition of c-Abl kinase activity (cell-free, Abl peptide substrate, 33P Flashplate); format: biochemical; details: IC50 for the c-Abl kinase activity
Procedure: The inhibitory activity of compounds within the scope of the invention on c-Abl kinase activity was tested according to the following procedure.
• 1. 10× Kinase Buffer [500 mM Tris-HCl pH=8, 100 mM MgCl2, 1 mM Na3VO4] • 2. 10 mM DTT [final concentration 1 mM] • 3. 10 mM ATP [final concentration 5 μM] (Gibco, Cat No:18330-019, Carlsbad, Calif.) • 4. ^33P-γ-ATP [NEG-602H; 2000–3000 Ci/mmol], 2 μCuries per well at 10 μCi/μl (0.2 μl/well) • 5. Abl enzyme (New England Biolabs, Cat No. P6050L, Beverly, Mass.) at 100 Units/μl use 10 Units/well (0.1 μl/well) • 6. Enzyme Dilution Buffer [50 mM Tris-HCl pH=8.0, 0.1% BSA] • 7. Wash/Stop Buffer [PBS+100 mM EDTA] • 8. NEN Streptavidin Flashplates (New England Nuclear, Cat No. SMP-103, Boston, Mass.). • 9. Abl Peptide Substrate (Biotin-[…]-amide) at 1 mM in 50 mM Tris-HCL pH=8.0. (Use at 1.0 μM). Procedure
Reagents were first mixed according to the following regimen:
The above reaction mixture was dispensed into each well of a Flashplate at 70 μl/well. To test the effect of a compound on Abl kinase activity, the test compound either in a fixed concentration or in serially diluted concentrations in 100% DMSO was added to appropriate wells at 1 μl/well.
Enzyme Abl was diluted in enzyme dilution buffer as following:
The kinase reaction was started by adding 30 μl of diluted Abl enzyme solution to each well on the Flashplate containing hot ATP (2 μCi/well) and Abl peptide substrate (at 1 μM final conc.), except wells of column 12 rows E and F, which were used to calculate the plate background. The Flashplate was swirled to mix and was incubated at 30° C. for 60 minutes. Then, the reaction mixture was discarded and the Flashplate was washed 3 times each with 200 μL Wash/Stop Buffer. Subsequently, each well on the Flashplate was filled with 200 μl of Wash/Stop buffer. The amount of ^33P retained in each well was measured using a Packard TopCount after the plate was sealed with a transparent plate sealer.
In order to test the potency of inhibition of present compounds, an IC50 for an individual compound was measured using the above procedure. As used herein, the IC50 for c-Abl kinase activity refers to the concentration of an inhibitor at which the activity of c-Abl kinase is reduced by one-half as compared with reactions containing no inhibitor.

[2] = PDGF-R kinase activity, read-out: IC50
[3] = read-out: IC50 (μM) on PDGF-R kinase activity

T1 sequence (P09619 545-1106): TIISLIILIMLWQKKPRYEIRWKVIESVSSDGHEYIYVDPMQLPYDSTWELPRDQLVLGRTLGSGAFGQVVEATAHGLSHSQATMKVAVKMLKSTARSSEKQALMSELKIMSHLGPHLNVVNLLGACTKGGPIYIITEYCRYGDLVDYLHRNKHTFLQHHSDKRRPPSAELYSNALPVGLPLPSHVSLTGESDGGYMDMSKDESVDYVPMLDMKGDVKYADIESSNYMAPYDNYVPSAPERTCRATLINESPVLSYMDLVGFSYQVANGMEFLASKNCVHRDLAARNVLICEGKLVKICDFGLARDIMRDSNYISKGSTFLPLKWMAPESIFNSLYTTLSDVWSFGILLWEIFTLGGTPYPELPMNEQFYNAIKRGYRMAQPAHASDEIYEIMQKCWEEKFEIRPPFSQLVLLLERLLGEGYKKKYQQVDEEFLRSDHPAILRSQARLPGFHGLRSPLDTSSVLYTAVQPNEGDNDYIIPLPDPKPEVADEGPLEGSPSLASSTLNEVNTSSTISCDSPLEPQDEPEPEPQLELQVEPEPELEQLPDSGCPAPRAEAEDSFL
Chain of c-Abl kinase (P00521 115-385): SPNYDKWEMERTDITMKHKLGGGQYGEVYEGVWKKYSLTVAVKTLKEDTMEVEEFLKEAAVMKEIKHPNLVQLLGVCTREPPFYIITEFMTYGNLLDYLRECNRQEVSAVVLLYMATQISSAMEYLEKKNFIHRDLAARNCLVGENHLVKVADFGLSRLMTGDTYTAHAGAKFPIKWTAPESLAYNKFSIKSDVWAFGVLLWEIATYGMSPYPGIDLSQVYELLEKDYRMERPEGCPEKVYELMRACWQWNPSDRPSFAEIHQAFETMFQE

Compound	inhibition at 10 µM ([1]; PDGF-R kinase activity) [%]	IC50 [1, 2] [µM]	IC50 (c-Abl kinase)	IC50 [1, 3] [µM]
COc1cc2c(cc1OC)-c1n[nH]c(Nc3ccccc3)c1C2 [Compound 2, (6,7-Dimethoxy-2,4-dihydro-indeno[1,2-c]pyrazol-3-yl)-phenyl-amine]	91	0.006	11 nM	–
COc1cccc2c1Cc1c-2n[nH]c1Nc1ccccc1 [Compound 8]	98	0.054	694 nM	–
COc1cc2c(cc1OC)-c1n[nH]c(Nc3ccc(F)cc3)c1C2 [Compound 13, (6,7-Dimethoxy-2,4-dihydro-indeno[1,2-c]pyrazol-3-yl)-(4-fluoro-phenyl)-amine]	91	0.0065	173 nM	–
COc1cccc(Nc2[nH]nc3c2Cc2cc(OC)c(OC)cc2-3)c1 [Compound 29, (6,7-Dimethoxy-2,4-dihydro-indeno[1,2-c]pyrazol-3-yl)-(3-methoxy-phenyl)-amine]	99	–	5 nM	–
COc1cc2c(cc1OC)-c1n[nH]c(Nc3cccc(C)c3)c1C2 [Compound 32, (6,7-Dimethoxy-2,4-dihydro-indeno[1,2-c]pyrazol-3-yl)-m-tolyl-amine]	79	–	2 nM	–
COc1cc2c(cc1OC)-c1n[nH]c(Nc3cccc(CO)c3)c1C2 [Compound 36, [3-(6,7-Dimethoxy-2,4-dihydro-indeno[1,2-c]pyrazol-3-ylamino)-phenyl]-methanol]	85	0.033	64 nM	–
COc1cc2c(cc1OC)-c1n[nH]c(Nc3cccc(O)c3)c1C2 [Compound 38, 3-(6,7-Dimethoxy-2,4-dihydro-indeno[1,2-c]pyrazol-3-ylamino)-phenol]	74	0.031	2 nM	–
COc1cc(Nc2[nH]nc3c2Cc2cc(OC)c(OC)cc2-3)cc(OC)c1 [Compound 41, (6,7-Dimethoxy-2,4-dihydro-indeno[1,2-c]pyrazol-3-yl)-(3,5-dimethoxy-phenyl)-amine]	83	0.0336	78 nM	–
COc1cc2c(cc1OC)-c1n[nH]c(Nc3cccc(Br)c3)c1C2 [Compound 44, (3-Bromo-phenyl)-(6,7-dimethoxy-2,4-dihydro-indeno[1,2-c]pyrazol-3-yl)-amine]	94	0.00054	7 nM	–
COc1cc2c(cc1OC)-c1n[nH]c(Nc3cccc(OCc4ccccc4)c3)c1C2 [Compound 54, (3-Benzyloxy-phenyl)-(6,7-dimethoxy-2,4-dihydro-indeno[1,2-c]pyrazol-3-yl)-amine]	76	0.0348	971 nM	–
CN(C)CCCOc1cccc2c1Cc1c-2n[nH]c1Nc1cccc(F)c1 [Compound 90, [5-(3-Dimethylamino-propoxy)-2,4-dihydro-indeno[1,2-c]pyrazol-3-yl]-(3-fluoro-phenyl)-amine]	97	0.0087	10300 nM	–
COc1cc2c(cc1OC)-c1n[nH]c(Nc3cccc(C(N)=O)c3)c1C2 [Compound 116, 3-(6,7-Dimethoxy-2,4-dihydro-indeno[1,2-c]pyrazol-3-ylamino)-benzamide]	96	0.0053	386 nM	–
COc1cccc(Nc2[nH]nc3c2Cc2cc(N)ccc2-3)c1 [Compound 118, N3-(3-Methoxy-phenyl)-2,4-dihydro-indeno[1,2-c]pyrazole-3,6-diamine]	74	0.0213	427 nM	–
Nc1ccc2c(c1)Cc1c-2n[nH]c1Nc1cccc(Cl)c1 [Compound 119, N3-(3-Chloro-phenyl)-2,4-dihydro-indeno[1,2-c]pyrazole-3,6-diamine]	90	0.0198	524 nM	–
CN1CCN(c2ccc3c(c2)Cc2c-3n[nH]c2Nc2cccc(Cl)c2)CC1 [Compound 124, (3-Chloro-phenyl)-[6-(4-methyl-piperazin-1-yl)-2,4-dihydro-indeno[1,2-c]pyrazol-3-yl]-amine]	94	0.0163	1850 nM	–
Clc1cccc(Nc2[nH]nc3c2Cc2cc4c(cc2-3)OCO4)c1 [Compound 128, (3-Chloro-phenyl)-(2,9-dihydro-5,7-dioxa-2,3-diaza-cyclopenta[a]-s-indacen-1-yl)-amine]	88	0.0596	313 nM	–
COc1cc2c(cc1OCCCN1CCOCC1)Cc1c-2n[nH]c1Nc1cccnc1 [Compound 129, [7-Methoxy-6-(3-morpholin-4-yl-propoxy)-2,4-dihydro-indeno[1,2-c]pyrazol-3-yl]-pyridin-3-yl-amine]	53.5	0.0367	10800 nM and 2360 nM	–
COc1cc2c(cc1OCCCN1CCOCC1)Cc1c-2n[nH]c1Nc1cccc(Br)c1 [Compound 130, (3-Bromo-phenyl)-[7-methoxy-6-(3-morpholin-4-yl-propoxy)-2,4-dihydro-indeno[1,2-c]pyrazol-3-yl]-amine]	94.5	0.00215	236 nM	–
COc1cc2c(cc1OCCCN1CCOCC1)Cc1c-2n[nH]c1Nc1cccc(Cl)c1 [Compound 132, (3-Chloro-phenyl)-[7-methoxy-6-(3-morpholin-4-yl-propoxy)-2,4-dihydro-indeno[1,2-c]pyrazol-3-yl]-amine]	79	0.00537	665 nM	–
COC(=O)c1cccc(Nc2[nH]nc3c2Cc2cc(OCCCN4CCOCC4)c(OC)cc2-3)c1 [Compound 133, 3-[7-Methoxy-6-(3-morpholin-4-yl-propoxy)-2,4-dihydro-indeno[1,2-c]pyrazol-3-ylamino]-benzoic acid methyl ester]	53	0.0379	498 nM	–
COc1cc2c(cc1OCCCN1CCOCC1)Cc1c-2n[nH]c1Nc1cccc(F)c1 [Compound 134, (3-Fluoro-phenyl)-[7-methoxy-6-(3-morpholin-4-yl-propoxy)-2,4-dihydro-indeno[1,2-c]pyrazol-3-yl]-amine]	96	0.0101	1160 nM	–
COC(=O)Cn1nc2c(c1Nc1cccc(F)c1)Cc1cc(OC)c(OC)cc1-2 [Compound 602, [3-(3-Fluoro-phenylamino)-6,7-dimethoxy-4H-indeno[1,2-c]pyrazol-2-yl]-acetic acid methyl ester]	40	–	–	–
COc1cc2c(cc1OC)-c1nn(C(=O)NCCOCCOCCO)c(Nc3cccc(F)c3)c1C2 [Compound 604, 3-(3-Fluoro-phenylamino)-6,7-dimethoxy-4H-indeno[1,2-c]pyrazole-2-carboxylic acid {2-[2-(2-hydroxy-ethoxy)-ethoxy]-ethyl}-amide]	79.5	–	–	2.13
COc1cc2c(c3nc(C)oc13)CC1C(Nc3cccc(F)c3)=NN=C21 (stereo not shown) [Compound 605, (3-Fluoro-phenyl)-(4-methoxy-2-methyl-7,9-dihydro-3-oxa-1,6,7-triaza-cyclopenta[b]-as-indacen-8-yl)-amine]	97.5	–	–	0.0051
COc1cc2c(c(Cc3ccccc3)c1O)-c1n[nH]c(Nc3cccc(F)c3)c1C2 [Compound 606, 8-Benzyl-3-(3-fluoro-phenylamino)-6-methoxy-2,4-dihydro-indeno[1,2-c]pyrazol-7-ol]	53.5	–	–	–
COc1cc2c(cc1O)-c1n[nH]c(Nc3cccc(F)c3)c1C2 [Compound 608, 3-(3-Fluoro-phenylamino)-6-methoxy-2,4-dihydro-indeno[1,2-c]pyrazol-7-ol]	106	–	–	0.026
COc1cc2c(cc1OC)-c1c(c(Nc3cccc(F)c3)nn1C)C2 [Compound 609]	84	–	–	4.68
COc1cc2c(cc1OC)-c1nn(C)c(Nc3cccc(F)c3)c1C2 [Compound 610, (6,7-dimethoxy-2-methyl-1,4-dihydro-indeno[1,2-c]pyrazole-3-yl)-(3-fluoro-phenyl)-amine]	51.5	–	–	9.38
